In the supplement of paper PMC10307832:

Legend:
Test in all cases: relative viability (nuclei count vs DMSO), 5 days (fraction); higher = more cells survive
17-AAG + Luminespib = compound: C=CCNC1=C2C[C@@H](C)C[C@H](OC)[C@H](O)[C@@H](C)/C=C(\C)[C@H](OC(N)=O)[C@@H](OC)/C=C\C=C(/C)C(=O)NC(=CC1=O)C2=O [17-AAG] + CCNC(=O)c1noc(-c2cc(C(C)C)c(O)cc2O)c1-c1ccc(CN2CCOCC2)cc1 [Luminespib] (partner 0.01 µM)
In short: (§1)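 Nuclei were stained with Hoechst during a one-step fixation (final 0.05% Triton X-100, 1% formaldehyde, 1 ug/ml Hoechst) carried out 5 days after dosing, then counted on 4× images. The cells, lung cancer lines in 1536-well plates, had been dosed by pin tool the day after seeding with one drug alone or a fixed anchor-drug dose plus five library-drug doses (not always all listed) in √10 steps. Relative viability is the nuclei count in treated wells divided by that in vehicle wells, and each value is the median of duplicate plates.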

17-AAG + Foretinib = compound: C=CCNC1=C2C[C@@H](C)C[C@H](OC)[C@H](O)[C@@H](C)/C=C(\C)[C@H](OC(N)=O)[C@@H](OC)/C=C\C=C(/C)C(=O)NC(=CC1=O)C2=O [17-AAG] + COc1cc2c(Oc3ccc(NC(=O)C4(C(=O)Nc5ccc(F)cc5)CC4)cc3F)ccnc2cc1OCCCN1CCOCC1 [Foretinib] (partner 0.25 µM)
In short: as §1

17-AAG + Tozasertib = compound: C=CCNC1=C2C[C@@H](C)C[C@H](OC)[C@H](O)[C@@H](C)/C=C(\C)[C@H](OC(N)=O)[C@@H](OC)/C=C\C=C(/C)C(=O)NC(=CC1=O)C2=O [17-AAG] + Cc1cc(Nc2cc(N3CCN(C)CC3)nc(Sc3ccc(NC(=O)C4CC4)cc3)n2)n[nH]1 [Tozasertib] (partner 0.1 µM)
In short: as §1

17-AAG + AZD7762 = compound: C=CCNC1=C2C[C@@H](C)C[C@H](OC)[C@H](O)[C@@H](C)/C=C(\C)[C@H](OC(N)=O)[C@@H](OC)/C=C\C=C(/C)C(=O)NC(=CC1=O)C2=O [17-AAG] + NC(=O)Nc1cc(-c2cccc(F)c2)sc1C(=O)N[C@H]1CCCNC1 [AZD7762] (partner 0.2 µM)
In short: as §1

Cell Line | relative viability (17-AAG + Luminespib; first compound 0.00128 µM) | relative viability (17-AAG + Luminespib; first compound 0.004048 µM) | relative viability (17-AAG + Luminespib; first compound 0.0128 µM) | relative viability (17-AAG + Luminespib; first compound 0.04048 µM) | relative viability (17-AAG + Luminespib; first compound 0.128 µM) | relative viability (17-AAG + Foretinib; first compound 0.00128 µM) | relative viability (17-AAG + Foretinib; first compound 0.004048 µM) | relative viability (17-AAG + Foretinib; first compound 0.0128 µM) | relative viability (17-AAG + Foretinib; first compound 0.04048 µM) | relative viability (17-AAG + Foretinib; first compound 0.128 µM) | relative viability (17-AAG + Tozasertib; first compound 0.00128 µM) | relative viability (17-AAG + Tozasertib; first compound 0.004048 µM) | relative viability (17-AAG + Tozasertib; first compound 0.0128 µM) | relative viability (17-AAG + Tozasertib; first compound 0.04048 µM) | relative viability (17-AAG + Tozasertib; first compound 0.128 µM) | relative viability (17-AAG + AZD7762; first compound 0.00128 µM) | relative viability (17-AAG + AZD7762; first compound 0.004048 µM) | relative viability (17-AAG + AZD7762; first compound 0.0128 µM) | relative viability (17-AAG + AZD7762; first compound 0.04048 µM) | relative viability (17-AAG + AZD7762; first compound 0.128 µM)
LCLC-97TM1 | 0.826 | 0.785 | 0.707 | 0.58 | 0.195 | 0.973 | 0.897 | 0.958 | 0.991 | 0.631 | 0.213 | 0.268 | 0.268 | 0.251 | 0.21 | 0.281 | 0.359 | 0.278 | 0.21 | 0.0815
LCLC-103H | 1.04 | 0.891 | 0.98 | 0.999 | 0.798 | 0.874 | 0.818 | 0.736 | 0.932 | 1.01 | 0.555 | 0.55 | 0.458 | 0.532 | 0.643 | 0.756 | 0.755 | 0.742 | 0.834 | 0.835
LK-2 | 0.201 | 0.162 | 0.181 | 0.17 | 0.177 | 1.09 | 1.11 | 1.21 | 1.26 | 0.25 | 0.161 | 0.174 | 0.153 | 0.227 | 0.172 | 0.481 | 0.522 | 0.149 | 0.115 | 0.0799
LOU-NH91 | 0.345 | 0.239 | 0.282 | 0.3 | 0.291 | 0.868 | 0.727 | 0.633 | 0.36 | 0.279 | 0.663 | 0.475 | 0.39 | 0.327 | 0.307 | 0.765 | 0.71 | 0.444 | 0.382 | 0.347
LU99A | 0.239 | 0.201 | 0.213 | 0.169 | 0.146 | 0.931 | 0.783 | 0.719 | 0.222 | 0.213 | 0.288 | 0.345 | 0.399 | 0.276 | 0.132 | 0.372 | 0.284 | 0.115 | 0.179 | 0.074
LXF-289 | 0.628 | 0.556 | 0.377 | 0.121 | 0.0993 | 1.05 | 0.961 | 0.879 | 0.381 | 0.152 | 0.204 | 0.22 | 0.203 | 0.127 | 0.0677 | 1.09 | 1.1 | 0.617 | 0.151 | 0.0926
NCI-H23 | 0.242 | 0.208 | 0.19 | 0.206 | 0.202 | 0.906 | 1.04 | 0.842 | 0.641 | 0.182 | 0.425 | 0.563 | 0.365 | 0.213 | 0.187 | 0.201 | 0.4 | 0.18 | 0.122 | 0.0996
